From patent US20110293745A1, “AURORA KINASE INHIBITORS” (SUNESIS PHARMACEUTICALS, INC., priority 2008, published 2011)

Experiments:
[1] = Bioavailability profile, IV, IP and PO; format: in vivo, mice; details: for F: mice, 50 mg/kg Compound 1, bioavailability
Description: Pharmacokinetic parameters were estimated using noncompartmental analysis within WinNonlin v. 4.1. […] For rising dose experiments measuring exposure for each species, sets containing several animals were singly dosed at a given dose. […] Abbreviations are as in Table 18; F is fraction of dose absorbed.

[2] = Mass balance, elimination, autoradiography and metabolites with 14C-label; format: in vivo; details: IV bolus 50 mg/kg, male rats, whole-body autoradiography
[3] = Rising dose pharmacokinetics (exposure, gender); format: in vivo, rats; details: for clearance / half-life / Vd: Sprague-Dawley, plasma, iv
Description: Pharmacokinetic parameters were estimated using noncompartmental analysis within WinNonlin v. 4.1. […] For rising dose experiments measuring exposure for each species, sets containing several animals were singly dosed at a given dose.

[4] = Pharmacokinetics, single bolus intravenous injection; format: in vivo, beagle dogs; details: beagle, dog, plasma, 5 mg/kg
Description: Pharmacokinetic parameters were estimated using noncompartmental analysis within WinNonlin v. 4.1. Quantification of Compound 2 was done by HPLC-MS/MS after extraction from plasma with acetonitrile. […] For rising dose experiments measuring exposure for each species, sets containing several animals were singly dosed at a given dose. Results from single-dose experiments are shown in FIG. 10A, Table 43, and in FIG. 10B and Table 44, respectively. […] C0 is initial concentration extrapolated to time zero. AUCINF is area under the plasma-concentration time curve from time zero extrapolated to the infinite time. CL is clearance; Vss is steady state volume of distribution. T1/2 is half-life.

H1299 = assay: cells; details: Homo sapiens, NCI-H1299, 96 h, read-out: BrdU IC50
Description: (§1) Cellular proliferation was assessed using the Cell Proliferation ELISA, bromodeoxyuridine (BrdU) kit (Roche) including reagents, according to the kit protocol.

A375 = assay: cells; details: Homo sapiens, A-375, 96 h, read-out: BrdU IC50
Description: as §1

A2780 = assay: cells; details: Homo sapiens, A2780, 96 h, read-out: BrdU IC50
Description: as §1

HCT116 = assay: cells; details: Homo sapiens, HCT-116, 96 h, read-out: BrdU IC50
Description: as §1

PC3 = assay: cells; details: Homo sapiens, PC-3, 96 h, read-out: BrdU IC50
Description: as §1

HeLa = assay: cells; details: Homo sapiens, 96 h, read-out: BrdU IC50
Description: as §1

Calu-6 = assay: cells; details: Homo sapiens, Calu-6, 96 h, read-out: BrdU IC50
Description: as §1

MDA-MB-231 = assay: cells; details: Homo sapiens, MDA-MB-231, 96 h, read-out: BrdU IC50
Description: as §1

[5] = test system: HCT 116 colon cancer xenograft; assay: In vivo efficacy, mouse xenograft
Description: HCT 116 colon cancer cells [200 μL of a 2.5×10^7 cells/mL suspension (1:1 DPBS with cells:Matrigel)] were subcutaneously implanted in the right hind flank of female nu/nu athymic mice. After 7 days, when tumors reached an average volume of approximately 200 mm^3, animals were weighed, randomized by tumor volume (l×w×h×0.52), and assigned to the various study groups before initial dosing.
[…]. The animals on the twice-weekly schedule received compound on Days 1, 4, 8, 11, 15 and 18. […].
(§2) Percent TGI is then calculated with the following equation: […]
where TVt is the average tumor volume on Day 10 and TV, is the initial average tumor volume. ANOVA was performed to calculate statistical significance, defined as p<0.05.
(§3) Time To Endpoint (TTE) was calculated for each individual animal to reach the predetermined study end point where the tumor volume becomes 1200 mm^3 or 10% of body weight or a greater than 20% body weight loss for two sequential measurements. The TTE is calculated and the median value is recorded for the group. Tumor Growth Delay (TGD) is then calculated with the following equation:
TGD=median TTEtreatment−median TTEcontrol

panel of 219 kinases = details: read-out: IC50 of the remaining 197 kinases
A375 melanoma xenograft = assay: In vivo efficacy, mouse xenograft
Description: as §2
as §3, with “equation: […]” for “equation:”
A375 melanoma tumor fragments (1 mm^3) were implanted subcutaneously in the right hind flank of mice. After 9 days, when tumors reached an average volume of approximately 110 mm^3, animals were weighed, randomized by tumor volume (l×w×h×0.52), and assigned to the various study groups before initial dosing.

[6] = CD-1, mouse, plasma, ip, 50 mg/kg
[7] = CD-1, mouse, plasma, iv, 50 mg/kg
[8] = CD-1, mouse, plasma, po, 50 mg/kg
[9] = HCT 116 (Colon), 75 mg/kg biw × 3
[10] = HCT 116 (Colon), 100 mg/kg biw × 3
[11] = HCT 116 (Colon), 150 mg/kg biw × 3

O=C(Nc1cccc(Cl)c1)Nc1ncc(CCNc2ncnc3ccsc23)s1 [Compound 2, 1-(3-chlorophenyl)-3-{5-[2-(thieno[3,2-d]pyrimidin-4-ylamino)ethyl]thiazol-2-yl}-urea]
AUC(0-inf) [1, 6]: 46200 ng·h/mL
half-life [1, 6]: 0.7 h
AUC(0-inf) [1, 7]: 43600 ng·h/mL
C0 [1, 7]: 42000 ng/mL
clearance [1, 7]: 19.1 mL/min/kg
half-life [1, 7]: 0.8 h
Vd ([1]; CD-1, mouse, plasma, iv, 50 mg/kg, read-out: Vss): 1.2 L/kg
AUC(0-inf) [1, 8]: 28300 ng·h/mL
half-life [1, 8]: 3.3 h
F ([1]; IP): 106%
F ([1]; PO): 65%
time of maximum tissue concentrations of radioactivity [2]: 1 h
clearance ([3]; 60 mg/m2, rat, 60 mg/m^2): 17.2 mL/min/kg
half-life ([3]; 60 mg/m2, rat, 60 mg/m^2): 1.4 h
Vd ([3]; 60 mg/m2, rat, 60 mg/m^2, read-out: Vss): 1.3 L/kg
clearance ([3]; 300 mg/m2, rat, 300 mg/m^2): 4 mL/min/kg
half-life ([3]; 300 mg/m2, rat, 300 mg/m^2): 1.7 h
Vd ([3]; 300 mg/m2, rat, 300 mg/m^2, read-out: Vss): 1.1 L/kg
clearance ([3]; 600 mg/m2, rat, 600 mg/m^2): 2 mL/min/kg
half-life ([3]; 600 mg/m2, rat, 600 mg/m^2): 5.9 h
Vd ([3]; 600 mg/m2, rat, 600 mg/m^2, read-out: Vss): 1.1 L/kg
dose dependence of systemic exposure (AUC) ([3]; most pronounced in rats and mice, lesser extent in dogs): non-linear systemic exposure
AUC(0-inf) [4]: 12300 ng·h/mL
C0 [4]: 2800 ng/mL
clearance [4]: 6.8 mL/min/kg
half-life [4]: 1.1 h
Vd ([4]; read-out: Vss): 1 L/kg

CS(=O)(=O)O.O=C(Nc1cccc(Cl)c1)Nc1ncc(CCNc2ncnc3ccsc23)s1 [Compound 1, 1-(3-chlorophenyl)-3-{5-[2-(thieno[3,2-d]pyrimidin-4-ylamino)ethyl]thiazo}-urea]
IC50 (H1299): 4 nM
IC50 (A375): 5.9 nM
IC50 (A2780): 1.8 nM
IC50 (HCT116): 6.4 nM
IC50 (PC3): 4.4 nM
IC50 (HeLa): 9.3 nM
IC50 (Calu-6): 13.3 nM
IC50 (MDA-MB-231): 8.1 nM
TGD ([5]; 100 mg/kg, qd × 5, 9 d off × 2): 45 days
TGD ([5]; 125 mg/kg, Qw × 3): 22.5 days
TGD ([5]; 150 mg/kg, biw × 3): 32.5 days
% TGI [5, 9]: 67.5%
TGD [5, 9]: 22 days
% TGI [5, 10]: 79.4%
TGD [5, 10]: 25.1 days
% TGI [5, 11]: 95.6%
TGD [5, 11]: 32.5 days
IC50 (panel of 219 kinases): ≥ 1000 nM
% TGI (A375 melanoma xenograft; 42.5 mg/kg biw × 3): 1.2%
TGD (A375 melanoma xenograft; 42.5 mg/kg biw × 3): 0 days
% TGI (A375 melanoma xenograft; 85 mg/kg biw × 3): 20.6%
TGD (A375 melanoma xenograft; 85 mg/kg biw × 3): 0 days
% TGI (A375 melanoma xenograft; 170 mg/kg biw × 3): 65.4%
TGD (A375 melanoma xenograft; 170 mg/kg biw × 3): 7.4 days
